Results as given in patent publication US7553972B2, “Benzamide inhibitors of the P2X7 receptor” (Pfizer, Inc., priority 2003, dated 2009).

molecular target: T1, P2X7 receptor (Homo sapiens, UniProt Q99572); experiment: Inhibition of ATP-stimulated IL-1β release from LPS-activated blood monocytes (P2X7 antagonist activity, ELISA readout); type: cell-based; details: not given
T1 construct: endogenous in cells
T1 sequence (Q99572 1-595): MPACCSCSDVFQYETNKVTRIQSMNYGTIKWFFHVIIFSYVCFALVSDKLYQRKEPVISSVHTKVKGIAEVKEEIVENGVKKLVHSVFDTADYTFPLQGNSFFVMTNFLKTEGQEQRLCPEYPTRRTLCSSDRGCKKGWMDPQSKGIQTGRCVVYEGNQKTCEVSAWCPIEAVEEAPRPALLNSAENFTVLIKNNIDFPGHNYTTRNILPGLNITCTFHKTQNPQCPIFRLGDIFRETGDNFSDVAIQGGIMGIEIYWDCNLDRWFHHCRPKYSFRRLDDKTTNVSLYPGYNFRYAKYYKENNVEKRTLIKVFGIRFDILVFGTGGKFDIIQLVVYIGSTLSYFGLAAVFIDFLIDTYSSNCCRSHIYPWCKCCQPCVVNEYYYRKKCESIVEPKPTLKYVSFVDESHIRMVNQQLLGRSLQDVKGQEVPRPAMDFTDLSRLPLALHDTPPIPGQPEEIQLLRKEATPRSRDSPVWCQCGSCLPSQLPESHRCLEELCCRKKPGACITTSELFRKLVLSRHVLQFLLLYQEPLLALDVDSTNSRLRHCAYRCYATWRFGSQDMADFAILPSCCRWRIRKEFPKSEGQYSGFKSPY
Protocol: In like manner, the compounds of the invention can be tested for antagonist activity at the P2X7 receptor using the cytokine IL-1β as the readout. Blood collected from normal volunteers in the presence of heparin is fractionated using lymphocyte separation medium obtained from Organon Technica (Westchester, Pa.). […] The resulting cell pellet was suspended in 10 ml of Maintenance Medium and a cell count was performed. In an average experiment, 2×10^5 mononuclear cells are seeded into each well of 96-well plates in a total volume of 0.1 ml. Monocytes are allowed to adhere for 2 hours, after which the supernatants are discarded and the attached cells are rinsed twice and then incubated in Maintenance Medium overnight at 37° C. in a 5% CO2 environment.
(§1) The cultured monocytes can be activated with 10 ng/ml LPS (E. coli serotype 055:B5; Sigma Chemicals, St. Louis, Mo.). […] ATP then is introduced (from a 100 mM stock solution, pH 7) to achieve a final concentration of 2 mM and the plate is incubated at 37° C. for an additional 3 hours. Media were harvested and clarified by centrifugation, and their IL-1[…] content was determined by ELISA (R&D Systems; Minneapolis, Minn.).
Blood was collected from normal volunteers in the presence of heparin, and was fractionated using lymphocyte separation medium obtained from Organon Technica (Westchester, Pa.). […] The resulting cell pellet was suspended in 10 ml of Maintenance Medium and a cell count was performed. Approximately, 2×10^5 mononuclear cells were seeded into each well of 96-well plates in a total volume of 0.1 ml. Monocytes were allowed to adhere for 2 hours, after which the supernatants were discarded and the attached cells were rinsed twice and then incubated in Maintenance Medium overnight at 37° C. in a 5% CO2 environment.
as §1, with “monocytes were” for “monocytes can be”, “then was” for “then is”, “plate was” for “plate is”, “their IL-1β” for “their IL-1[…]”

SMILES	IC50 [nM]
Cc1nc(-c2ccc(Cl)c(C(=O)NCC3(O)CCCCCC3)c2)cs1 [Example 59, 2-Chloro-N-(1-hydroxy-cycloheptylmethyl)-5-(2-methyl-thiazol-4-yl)-benzamide]	280

same assay, conditions: monocytes from normal volunteers, 10 ng/ml LPS 2 h, compound 30 min, 2 mM ATP 3 h, IL-1β by ELISA, triplicate wells; read-out: IC50 (inhibit 50% of the stimulation of the release of IL-1β from monocytes by ATP)

SMILES	IC50 [nM]
O=C(NCC1(O)CCCCCC1)c1cc(-c2ccc(=O)n(CCO)n2)ccc1Cl [Example 38, 2-Chloro-N-(1-hydroxy-cycloheptylmethyl)-5-[1-(2-hydroxy-ethyl)-6-oxo-1,6-dihydro-pyridazin-3-yl]-benzamide]	245
Cc1cc(-c2ccc(Cl)c(C(=O)NCC3(O)CCCCCC3)c2)nn1C[C@@H](O)CO [Example 40, 2-Chloro-5-[1-(2,3-dihydroxy-propyl)-5-methyl-1H-pyrazol-3-yl]-N-(1-hydroxy-cycloheptylmethyl)-benzamide]	8
CC(C)(O)Cn1ccc(-c2ccc(Cl)c(C(=O)NCC3(O)CCCCCC3)c2)n1 [Example 41, 2-Chloro-N-(1-hydroxy-cycloheptylmethyl)-5-[1-(2-hydroxy-2-methyl-propyl)-1H-pyrazol-3-yl]-benzamide]	30
Cc1cc(-c2ccc(Cl)c(C(=O)NCC3(O)CCCCCC3)c2)nn1CC(C)(C)O [Example 42, 2-Chloro-N-(1-hydroxy-cycloheptylmethyl)-5-[1-(2-hydroxy-2-methyl-propyl)-5-methyl-1H-pyrazol-3-yl]-benzamide]	8
Cc1cc(-c2ccc(Cl)c(C(=O)NCC3(O)CCCCCC3)c2)n(C[C@@H](O)CO)n1 [Example 43, 2-Chloro-5-[2-(2,3-dihydroxy-propyl)-5-methyl-2H-pyrazol-3-yl]-N-(1-hydroxy-cycloheptylmethyl)-benzamide]	130
Cc1cc(-c2ccc(Cl)c(C(=O)NCC3(O)CCCCCC3)c2)nn1CC(O)CN (stereo not drawn) [Example 44, 5-[1-(3-Amino-2-hydroxy-propyl)-5-methyl-1H-pyrazol-3-yl]-2-chloro-N-(1-hydroxy-cycloheptylmethyl)-benzamide]	2.5
Cc1cc(-c2ccc(Cl)c(C(=O)NCC3(O)CCCCCC3)c2)nn1C[C@@](C)(O)CO [Example 45, 2-Chloro-5-[1-(2,3-dihydroxy-2-methyl-propyl)-5-methyl-1H-pyrazol-3-yl]-N-(1-hydroxy-cycloheptylmethyl)-benzamide]	6
Cc1cc(-c2ccc(Cl)c(C(=O)NCC3(O)CCCCCC3)c2)nn1CC(=O)N1CCCC1 [Example 46, 2-Chloro-N-(1-hydroxy-cycloheptylmethyl)-5-[5-methyl-1-(2-oxo-2-pyrrolidin-1-yl-ethyl)-1H-pyrazol-3-yl]-benzamide]	22
Cc1cc(-c2ccc(Cl)c(C(=O)NCC3(O)CCCCCC3)c2)nn1CC(=O)NCCN(C)C [Example 47, 2-Chloro-5-{1-[(2-dimethylamino-ethylcarbamoyl)-methyl]-5-methyl-1H-pyrazol-3-yl}-N-(1-hydroxy-cycloheptylmethyl)-benzamide]	3.5
CCC(CO)NC(=O)Cn1nc(-c2ccc(Cl)c(C(=O)NCC3(O)CCCCCC3)c2)cc1C (stereo not drawn) [Example 48, 2-Chloro-N-(1-hydroxy-cycloheptylmethyl)-5-{1-[(1-hydroxymethyl-propylcarbamoyl)-methyl]-5-methyl-1H-pyrazol-3-yl}-benzamide]	10.5
CNC(=O)CNC(=O)Cn1nc(-c2ccc(Cl)c(C(=O)NCC3(O)CCCCCC3)c2)cc1C [Example 49, 2-Chloro-N-(1-hydroxy-cycloheptylmethyl)-5-{5-methyl-1-[(methylcarbamoylmethyl-carbamoyl)-methyl]-1H-pyrazol-3-yl}-benzamide]	5
Cc1cc(-c2ccc(Cl)c(C(=O)NCC3(O)CCCCCC3)c2)nn1CC(=O)NC(CO)CO [Example 50, 2-Chloro-N-(1-hydroxy-cycloheptylmethyl)-5-{1-[(2-hydroxy-1-hydroxymethyl-ethylcarbamoyl)-methyl]-5-methyl-1H-pyrazol-3-yl}-benzamide]	5
Cc1cc(-c2ccc(Cl)c(C(=O)NCC3(O)CCCCCC3)c2)nn1CC(=O)NC[C@H](C)O [Example 51, 2-Chloro-N-(1-hydroxy-cycloheptylmethyl)-5-{1-[(2-hydroxy-propylcarbamoyl)-methyl]-5-methyl-1H-pyrazol-3-yl}-benzamide]	5
Cc1cc(-c2ccc(Cl)c(C(=O)NCC3(O)CCCCCC3)c2)nn1CC(=O)Nc1ncccn1 [Example 52, 2-Chloro-N-(1-hydroxy-cycloheptylmethyl)-5-[5-methyl-1-(pyrimidin-2-ylcarbamoylmethyl)-1H-pyrazol-3-yl]-benzamide]	8
Cc1cc(-c2ccc(Cl)c(C(=O)NCC3(O)CCCCCC3)c2)nn1CC(=O)N1C[C@H](O)[C@@H](O)C1 [Example 53, 2-Chloro-5-{1-[2-(3,4-dihydroxy-pyrrolidin-1-yl)-2-oxo-ethyl]-5-methyl-1H-pyrazol-3-yl}-N-(1-hydroxy-cycloheptylmethyl)-benzamide]	15.5
Cc1cc(-c2ccc(Cl)c(C(=O)NCC3(O)CCCCCC3)c2)nn1C[C@@H](O)CN [Example 54, 5-[1-(3-Amino-2-hydroxy-propyl)-5-methyl-1H-pyrazol-3-yl]-2-chloro-N-(1-hydroxy-cycloheptylmethyl)-benzamide]	5
Cc1cc(-c2ccc(Cl)c(C(=O)NCC3(O)CCCCCC3)c2)n(C[C@@H](O)CN)n1 [Example 55, 5-[2-(3-Amino-2-hydroxy-propyl)-5-methyl-2H-pyrazol-3-yl]-2-chloro-N-(1-hydroxy-cycloheptylmethyl)-benzamide]	365
O=C(NCC1(O)CCCCCC1)c1cc(-c2cn[nH]n2)ccc1Cl [Example 56, 2-Chloro-N-(1-hydroxy-cycloheptylmethyl)-5-(2H-[1,2,3]triazol-4-yl)-benzamide]	480
O=C(NCC1(O)CCCCCC1)c1cc(-c2cn(CC(O)CF)cn2)ccc1Cl (stereo not drawn) [Example 57, 2-Chloro-5-[1-(3-fluoro-2-hydroxy-propyl)-1H-imidazol-4-yl]-N-(1-hydroxy-cycloheptylmethyl)-benzamide]	> 1000
O=C(NCC1(O)CCCCCC1)c1cc(-c2cc(CCO)on2)ccc1Cl [Example 58, 2-Chloro-N-(1-hydroxy-cycloheptylmethyl)-5-[5-(2-hydroxy-ethyl)-isoxazol-3-yl]-benzamide]	430
